{"source": "patent EP4667467A1", "about": "“PROTAC DEGRADERS OF MLLT1 AND/OR MLLT3” (Dark Blue Therapeutics Ltd, priority 2024, dated 2025)", "molecular_target": "T1, MLLT1 (Homo sapiens, UniProt Q03111)", "T1 construct": "endogenous in cells; host or cells: MV4-11 (ATCC CRL-9591)", "T1 sequence (Q03111 1-559)": "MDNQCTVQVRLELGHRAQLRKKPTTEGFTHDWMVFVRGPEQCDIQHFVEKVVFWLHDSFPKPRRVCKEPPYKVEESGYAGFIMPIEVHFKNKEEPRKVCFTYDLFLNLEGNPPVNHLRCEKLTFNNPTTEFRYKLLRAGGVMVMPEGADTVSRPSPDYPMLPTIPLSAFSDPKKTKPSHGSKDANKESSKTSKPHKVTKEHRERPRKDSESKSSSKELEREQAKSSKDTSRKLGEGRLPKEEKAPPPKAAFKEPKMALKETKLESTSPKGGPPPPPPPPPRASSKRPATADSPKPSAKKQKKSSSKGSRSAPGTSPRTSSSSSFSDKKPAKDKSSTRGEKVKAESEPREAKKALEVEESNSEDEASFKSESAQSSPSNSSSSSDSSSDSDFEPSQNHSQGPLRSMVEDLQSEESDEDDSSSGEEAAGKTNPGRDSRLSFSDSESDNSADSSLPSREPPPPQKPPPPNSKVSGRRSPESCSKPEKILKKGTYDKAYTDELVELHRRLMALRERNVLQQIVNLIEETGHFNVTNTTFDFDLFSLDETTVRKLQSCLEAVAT", "assay": "MLLT1 Degradation Assay (JESS automated chemiluminescent detection, MV4-11 cells)", "type": "cell-based", "conditions": "24h, with respect to DMSO control; for MLLT1 % Degradation @ 0.01 µM: 0.01 µM (10 nM) test compound; for MLLT1 % Degradation @ 0.1 µM: 0.1 µM (100 nM) test compound; for MLLT 1 % Degradation @ 1 µM: 1 µM (1000 nM) test compound", "description": "MLLT1 degradation efficacy of compounds were tested in an automated chemiluminescent detection system (JESS, Cat# 004-650). […] 10 mM DMSO stocks were prepared, and cells were treated with three concentrations of test compounds viz. 1000, 100 and 10 nM at a final DMSO concentration of 0.1% and incubated for 24h at 37°C, 5% CO2. […] Post run, data were analysed using \"Compass for SW\" software for chemiluminescent detection. The peak area for each band was used for the calculation of MLLT1 degradation with respect to DMSO control. Data is shown as \"MLLT1 % degradation\".", "data": [{"compound": "C[C@H](C#Cc1cccc2c1CN(C1CCC(=O)NC1=O)C2=O)Oc1ccc(C(=O)Nc2cc3[nH]c([C@H]4CCCN4C)cc3cn2)cc1", "note": "(stereo partly drawn) [Example 25, 4-(((2R)-4-(2-(2,6-dioxopiperidin-3-yl)-1-oxoisoindolin-4-yl)but-3-yn-2-yl)oxy)-N-(2-((R)-1-methylpyrrolidin-2-yl)-1H-pyrrolo[3,2-c]pyridin-6-yl)benzamide]", "values": [{"measurement": "MLLT1 % Degradation @ 0.01 µM", "result": "A (Category A: A ≥ 75% degradation)"}, {"measurement": "MLLT1 % Degradation @ 0.1 µM", "result": "A (Category A: A ≥ 75% degradation)"}, {"measurement": "MLLT 1 % Degradation @ 1 µM", "result": "A (Category A: A ≥ 75% degradation)"}]}, {"compound": "CN1CCC[C@@H]1c1cc2cnc(NC(=O)c3cccc(OCCCCCCCC#Cc4cccc5c4C(=O)N(C4CCC(=O)NC4=O)C5=O)c3)cc2[nH]1", "note": "(stereo partly drawn) [Example 26, 3-((9-(2-(2,6-dioxopiperidin-3-yl)-1,3-dioxoisoindolin-4-yl)non-8-yn-1-yl)oxy)-N-(2-((R)-1-methylpyrrolidin-2-yl)-1H-pyrrolo[3,2-c]pyridin-6-yl)benzamide]", "values": [{"measurement": "MLLT1 % Degradation @ 0.01 µM", "result": "D (Category D: D < 25% degradation)"}, {"measurement": "MLLT1 % Degradation @ 0.1 µM", "result": "D (Category D: D < 25% degradation)"}, {"measurement": "MLLT 1 % Degradation @ 1 µM", "result": "C (Category C: 25% ≤ C < 50% degradation)"}]}, {"compound": "CN1CCC[C@@H]1c1cc2cnc(NC(=O)CCCCCCNc3ccc4c(c3)C(=O)N(C3CCC(=O)NC3=O)C4=O)cc2[nH]1", "note": "(stereo partly drawn) [Example 27, 7-{[2-(2,6-dioxopiperidin-3-yl)-1,3-dioxoisoindol-5-yl]amino}-N-{2-[(2R)-1-methylpyrrolidin-2-yl]-1H-pyrrolo[3,2-c]pyridin-6-yl}heptanamide]", "values": [{"measurement": "MLLT1 % Degradation @ 0.01 µM", "result": "C (Category C: 25% ≤ C < 50% degradation)"}, {"measurement": "MLLT1 % Degradation @ 0.1 µM", "result": "C (Category C: 25% ≤ C < 50% degradation)"}, {"measurement": "MLLT 1 % Degradation @ 1 µM", "result": "B (Category B: 50% ≤ B < 75% degradation)"}]}, {"compound": "CN1CCC[C@@H]1c1cc2cnc(NC(=O)CCCCCCNc3cccc4c3C(=O)N(C3CCC(=O)NC3=O)C4=O)cc2[nH]1", "note": "(stereo partly drawn) [Example 29, 7-{[2-(2,6-dioxopiperidin-3-yl)-1,3-dioxoisoindol-4-yl]amino}-N-{2-[(2R)-1-methylpyrrolidin-2-yl]-1H-pyrrolo[3,2-c]pyridin-6-yl}heptanamide]", "values": [{"measurement": "MLLT1 % Degradation @ 0.01 µM", "result": "D (Category D: D < 25% degradation)"}, {"measurement": "MLLT1 % Degradation @ 0.1 µM", "result": "C (Category C: 25% ≤ C < 50% degradation)"}, {"measurement": "MLLT 1 % Degradation @ 1 µM", "result": "A (Category A: A ≥ 75% degradation)"}]}, {"compound": "CN1CCC[C@@H]1c1cc2cnc(NC(=O)CCCCCCCCNc3cccc4c3C(=O)N(C3CCC(=O)NC3=O)C4=O)cc2[nH]1", "note": "(stereo partly drawn) [Example 30, 9-{[2-(2,6-dioxopiperidin-3-yl)-1,3-dioxoisoindol-4-yl]amino}-N-{2-[(2R)-1-methylpyrrolidin-2-yl]-1H-pyrrolo[3,2-c]pyridin-6-yl}nonanamide]", "values": [{"measurement": "MLLT1 % Degradation @ 0.01 µM", "result": "C (Category C: 25% ≤ C < 50% degradation)"}, {"measurement": "MLLT1 % Degradation @ 0.1 µM", "result": "B (Category B: 50% ≤ B < 75% degradation)"}, {"measurement": "MLLT 1 % Degradation @ 1 µM", "result": "A (Category A: A ≥ 75% degradation)"}]}, {"compound": "CN1CCC[C@@H]1c1[nH]c2cc(NC(=O)CCCCCCNc3cccc4c3C(=O)N(C3CCC(=O)NC3=O)C4=O)ncc2c1Cl", "note": "(stereo partly drawn) [Example 33, N-{3-chloro-2-[(2R)-1-methylpyrrolidin-2-yl]-1H-pyrrolo[3,2-c]pyridin-6-yl}-7-{[2-(2,6-dioxopiperidin-3-yl)-1,3-dioxoisoindol-4-yl]amino}heptanamide]", "values": [{"measurement": "MLLT1 % Degradation @ 0.01 µM", "result": "B (Category B: 50% ≤ B < 75% degradation)"}, {"measurement": "MLLT1 % Degradation @ 0.1 µM", "result": "A (Category A: A ≥ 75% degradation)"}, {"measurement": "MLLT 1 % Degradation @ 1 µM", "result": "A (Category A: A ≥ 75% degradation)"}]}, {"compound": "CN1CCC[C@@H]1c1cc2cnc(NC(=O)c3ccc(-c4cnn(CCCC5CCN(c6cccc7c6C(=O)N(C6CCC(=O)NC6=O)C7=O)CC5)c4)cc3)cc2[nH]1", "note": "(stereo partly drawn) [Example 34, 4-[1-(3-{1-[2-(2,6-dioxopiperidin-3-yl)-1,3-dioxoisoindol-4-yl]piperidin-4-yl}propyl)pyrazol-4-yl]-N-{2-[(2R)-1-methylpyrrolidin-2-yl]-1H-pyrrolo[3,2-c]pyridin-6-yl}benzamide]", "values": [{"measurement": "MLLT1 % Degradation @ 0.1 µM", "result": "A (Category A: A ≥ 75% degradation)"}, {"measurement": "MLLT 1 % Degradation @ 1 µM", "result": "A (Category A: A ≥ 75% degradation)"}]}, {"compound": "CN1CCC[C@@H]1c1cc2cnc(NC(=O)c3ccc(-c4cnn(CCCC5CCN(c6cccc7c6CN(C6CCC(=O)NC6=O)C7=O)CC5)c4)cc3)cc2[nH]1", "note": "(stereo partly drawn) [Example 35, 4-[1-(3-{1-[2-(2,6-dioxopiperidin-3-yl)-1-oxo-3H-isoindol-4-yl]piperidin-4-yl}propyl)pyrazol-4-yl]-N-{2-[(2R)-1-methylpyrrolidin-2-yl]-1H-pyrrolo[3,2-c]pyridin-6-yl}benzamide]", "values": [{"measurement": "MLLT1 % Degradation @ 0.01 µM", "result": "A (Category A: A ≥ 75% degradation)"}, {"measurement": "MLLT1 % Degradation @ 0.1 µM", "result": "A (Category A: A ≥ 75% degradation)"}, {"measurement": "MLLT 1 % Degradation @ 1 µM", "result": "A (Category A: A ≥ 75% degradation)"}]}, {"compound": "CN1CCC[C@@H]1c1cc2cnc(NC(=O)c3ccc(CCCNc4cccc5c4C(=O)N(C4CCC(=O)NC4=O)C5=O)cc3)cc2[nH]1", "note": "(stereo partly drawn) [Example 36, 4-(3-{[2-(2,6-dioxopiperidin-3-yl)-1,3-dioxoisoindol-4-yl]amino}propyl)-N-{2-[(2R)-1-methylpyrrolidin-2-yl]-1H-pyrrolo[3,2-c]pyridin-6-yl}benzamide]", "values": [{"measurement": "MLLT1 % Degradation @ 0.01 µM", "result": "A (Category A: A ≥ 75% degradation)"}, {"measurement": "MLLT1 % Degradation @ 0.1 µM", "result": "A (Category A: A ≥ 75% degradation)"}, {"measurement": "MLLT 1 % Degradation @ 1 µM", "result": "A (Category A: A ≥ 75% degradation)"}]}, {"compound": "CN1CCC[C@H]1c1cc2cnc(NC(=O)c3ccc(CCCNc4cccc5c4C(=O)N(C4CCC(=O)NC4=O)C5=O)cc3)cc2[nH]1", "note": "(stereo partly drawn) [Example 37, 4-(3-{[2-(2,6-dioxopiperidin-3-yl)-1,3-dioxoisoindol-4-yl]amino}propyl)-N-{2-[(2S)-1-methylpyrrolidin-2-yl]-1H-pyrrolo[3,2-c]pyridin-6-yl}benzamide]", "values": [{"measurement": "MLLT1 % Degradation @ 0.01 µM", "result": "B (Category B: 50% ≤ B < 75% degradation)"}, {"measurement": "MLLT1 % Degradation @ 0.1 µM", "result": "A (Category A: A ≥ 75% degradation)"}, {"measurement": "MLLT 1 % Degradation @ 1 µM", "result": "A (Category A: A ≥ 75% degradation)"}]}, {"compound": "CN1CCC[C@@H]1c1cc2cnc(NC(=O)c3cnn(CCCC4CCN(c5cccc6c5C(=O)N(C5CCC(=O)NC5=O)C6=O)CC4)c3)cc2[nH]1", "note": "(stereo partly drawn) [Example 38, 1-(3-{1-[2-(2,6-dioxopiperidin-3-yl)-1,3-dioxoisoindol-4-yl]piperidin-4-yl}propyl)-N-{2-[(2R)-1-methylpyrrolidin-2-yl]-1H-pyrrolo[3,2-c]pyridin-6-yl}pyrazole-4-carboxamide]", "values": [{"measurement": "MLLT1 % Degradation @ 0.01 µM", "result": "D (Category D: D < 25% degradation)"}, {"measurement": "MLLT1 % Degradation @ 0.1 µM", "result": "D (Category D: D < 25% degradation)"}, {"measurement": "MLLT 1 % Degradation @ 1 µM", "result": "C (Category C: 25% ≤ C < 50% degradation)"}]}, {"compound": "CN1CCC[C@@H]1c1cc2cnc(NC(=O)COCCCCNc3cccc4c3C(=O)N(C3CCC(=O)NC3=O)C4=O)cc2[nH]1", "note": "(stereo partly drawn) [Example 40, 2-(4-((2-(2,6-dioxopiperidin-3-yl)-1,3-dioxoisoindolin-4-yl)amino)butoxy)-N-(2-((R)-1-methylpyrrolidin-2-yl)-1H-pyrrolo[3,2-c]pyridin-6-yl)acetamide]", "values": [{"measurement": "MLLT1 % Degradation @ 0.1 µM", "result": "C (Category C: 25% ≤ C < 50% degradation)"}, {"measurement": "MLLT 1 % Degradation @ 1 µM", "result": "B (Category B: 50% ≤ B < 75% degradation)"}]}, {"compound": "CN1CCC[C@@H]1c1cc2cnc(NC(=O)CCCC3CCN(c4cccc5c4C(=O)N(C4CCC(=O)NC4=O)C5=O)CC3)cc2[nH]1", "note": "(stereo partly drawn) [Example 41, 4-(1-(2-(2,6-dioxopiperidin-3-yl)-1,3-dioxoisoindolin-4-yl)piperidin-4-yl)-N-(2-((R)-1-methylpyrrolidin-2-yl)-1H-pyrrolo[3,2-c]pyridin-6-yl)butanamide]", "values": [{"measurement": "MLLT1 % Degradation @ 0.01 µM", "result": "B (Category B: 50% ≤ B < 75% degradation)"}, {"measurement": "MLLT1 % Degradation @ 0.1 µM", "result": "B (Category B: 50% ≤ B < 75% degradation)"}, {"measurement": "MLLT 1 % Degradation @ 1 µM", "result": "A (Category A: A ≥ 75% degradation)"}]}, {"compound": "CN1CCC[C@@H]1c1cc2cnc(NC(=O)CCCCC3CCN(c4cccc5c4C(=O)N(C4CCC(=O)NC4=O)C5=O)CC3)cc2[nH]1", "note": "(stereo partly drawn) [Example 42, 5-(1-(2-(2,6-Dioxopiperidin-3-yl)-1,3-dioxoisoindolin-4-yl)piperidin-4-yl)-N-(2-((R)-1-methylpyrrolidin-2-yl)-1H-pyrrolo[3,2-c]pyridin-6-yl)pentanamide]", "values": [{"measurement": "MLLT1 % Degradation @ 0.1 µM", "result": "B (Category B: 50% ≤ B < 75% degradation)"}, {"measurement": "MLLT 1 % Degradation @ 1 µM", "result": "B (Category B: 50% ≤ B < 75% degradation)"}]}]}
